Assay results from patent US20090226544A1, “Pharmaceutical Compound For Treating Inflammation, Pain, Arthritis And Spinitis, And Proliferating Osteoblastic Cell And Method For Producing Thereof” (priority 2005, published 2009).

Assays:
Format in all cases: in vivo
SD male albino rats [1] = experiment: Carrageenan-induced hind paw edema, Example 4 administered for 2 weeks (Experimental Example 5); details: dose 5 mg/kg, 2-week test
Protocol: SD male albino rats weighing 150 to 170 g, which were fasted for 16 hours before experimental use, were used as test animals to induce edema by subcutaneously injecting 0.1 ml of a 1% type IV lambda carrageenan-saline solution as a […] to the subplantar of the right hind paw of each of the albino rats (Winter et al., 1962). The paw volume was measured with a plethysmometer (Ugo Basile, Italy) 0.5, 1, 2, 4 and 6 hours after injection of carrageenan and compared with the paw volume measured before injection of carrageenan for calculation of an increase (%) of paw volume. In addition, an increase (%) of paw volume for a control group was compared with increases (%) of paw volume for treatment groups for obtaining a reduction ratio (%) of paw volume. The pharmaceutical compositions prepared in Examples 1 through 4 were orally administered to the […] 30 minutes before injection of carrageenan. The extent of paw edema (or swelling) was obtained based on the edema enhancement rate and edema inhibition rate measured using the following relationship. […] Phenylbutazone was used as a positive control. In order to examine the inhibitory effect of the pharmaceutical composition prepared in Example 4 of the present invention on acute inflammation induced by carrageenan, […] Experimental Example 1 and the results are summarized in Table 4. […]

SD male albino rats [2] = experiment: as above; details: dose 5 mg/kg; 2-week test; 2 h after carrageenan
SD male albino rats [3] = experiment: Carrageenan-induced hind paw edema, Example 4 at 30-600 mg/kg (Experimental Example 4)
Protocol: SD male albino rats weighing 150 to 170 g, which were fasted for 16 hours before experimental use, were used as test animals to induce edema by subcutaneously injecting 0.1 ml of a 1% type IV lambda carrageenan-saline solution as a […] to the subplantar of the right hind paw of each of the albino rats (Winter et al., 1962). The paw volume was measured with a plethysmometer (Ugo Basile, Italy) 0.5, 1, 2, 4 and 6 hours after injection of carrageenan and compared with the paw volume measured before injection of carrageenan for calculation of an increase (%) of paw volume. In addition, an increase (%) of paw volume for a control group was compared with increases (%) of paw volume for treatment groups for obtaining a reduction ratio (%) of paw volume. The pharmaceutical compositions prepared in Examples 1 through 4 were orally administered to the […] 30 minutes before injection of carrageenan. The extent of paw edema (or swelling) was obtained based on the edema enhancement rate and edema inhibition rate measured using the following relationship. […] Phenylbutazone was used as a positive control. In order to examine the inhibitory effect of the pharmaceutical composition prepared in Example 4 of the present invention on acute inflammation induced by carrageenan, […] Experimental Example 1 and the results are summarized in Table 4.

SD male albino rats [4] = experiment: Acute inflammation test by carrageenan-induced hind paw edema after 2 weeks of administration (Experimental Example 2); details: dose 50 mg/kg, 2-week test
Protocol: (§1) SD male albino rats weighing 150 to 170 g, which were fasted for 16 hours before experimental use, were used as test animals to induce edema by subcutaneously injecting 0.1 ml of a 1% type IV lambda carrageenan-saline solution as a […] to the subplantar of the right hind paw of each of the albino rats (Winter et al., 1962). The paw volume was measured with a plethysmometer (Ugo Basile, Italy) 0.5, 1, 2, 4 and 6 hours after injection of carrageenan and compared with the paw volume measured before injection of carrageenan for calculation of an increase (%) of paw volume. In addition, an increase (%) of paw volume for a control group was compared with increases (%) of paw volume for treatment groups for obtaining a reduction ratio (%) of paw volume. […] The extent of paw edema (or swelling) was obtained based on the edema enhancement rate and edema inhibition rate measured using the following relationship.

SD male albino rats [5] = experiment: Acute inflammation test by carrageenan-induced hind paw edema, composition given 30 minutes before carrageenan (Experimental Example 1); details: dose 50 mg/kg oral
Protocol: as §1

ICR male mice = experiment: Analgesic effect test, acetic acid-induced writhing (Experimental Example 3); details: dose 50 mg/kg oral
Protocol: The pharmaceutical compositions prepared in Examples 1 through 4 were orally administered to ICR (Institute of Cancer Research) male mice weighing 25 to 28 g, which were fasted for 12 hours before experimental use. After 30 minutes of administration, 0.7% acetic acid-saline solution was intraperitoneally injected to the mice in a dose of […] per 10 g of body weight and from 5 minutes after administration, the number of writhings occurring to each mouse was counted for 10 minutes (Koster et al., 1959) and the results are summarized in Table 3. Phenylbutazone was used as a positive control.

Question: Which results are given for `O=C(O)COC(=O)Cc1ccccc1Nc1c(Cl)cccc1Cl` [Aceclofenac, aceclofenac]?
Answer: Increased percent of paw volume (%) (SD male albino rats [1]; 0.5 h after carrageenan): 10.1 ± 1.4 %; reduction ratio (%) of paw volume vs control (SD male albino rats [1]; 0.5 h after carrageenan): 62.6%; Increased percent of paw volume (%) (SD male albino rats [1]; 1 h after carrageenan): 15.1 ± 1.7 %; reduction ratio (%) of paw volume vs control (SD male albino rats [1]; 1 h after carrageenan): 51.4%; reduction ratio (%) of paw volume vs control (SD male albino rats [1]; 2 h after carrageenan): 59.2%; Increased percent of paw volume (%) (SD male albino rats [1]; 4 h after carrageenan): 55.3 ± 3.9 %; reduction ratio (%) of paw volume vs control (SD male albino rats [1]; 4 h after carrageenan): 29.4%; Increased percent of paw volume (%) (SD male albino rats [1]; 6 h after carrageenan): 61.0 ± 3.5%; reduction ratio (%) of paw volume vs control (SD male albino rats [1]; 6 h after carrageenan): 19.4%; Increased percent of paw volume (%) (SD male albino rats [2]): 19.7 ± 2.0 %; Increased percent of paw volume (%) (SD male albino rats [3]; 0.5 h after carrageenan): 12.1 ± 2.6%; reduction ratio (%) of paw volume vs control (SD male albino rats [3]; 0.5 h after carrageenan): 34.8%; Increased percent of paw volume (%) (SD male albino rats [3]; 1 h after carrageenan): 12.1 ± 3.5 %; reduction ratio (%) of paw volume vs control (SD male albino rats [3]; 1 h after carrageenan): 53.7%; Increased percent of paw volume (%) (SD male albino rats [3]; 2 h after carrageenan): 16.7 ± 3.0 %; reduction ratio (%) of paw volume vs control (SD male albino rats [3]; 2 h after carrageenan): 58.7%; Increased percent of paw volume (%) (SD male albino rats [3]; 4 h after carrageenan): 36.9 ± 5.1 %; reduction ratio (%) of paw volume vs control (SD male albino rats [3]; 4 h after carrageenan): 56.1%; Increased percent of paw volume (%) (SD male albino rats [3]; 6 h after carrageenan): 50.6 ± 3.9 %; reduction ratio (%) of paw volume vs control (SD male albino rats [3]; 6 h after carrageenan): 31.5%

Question: For `O=C(O)Cc1ccccc1Nc1c(Cl)cccc1Cl` [Diclofenac, diclofenac], which “Increased percent of paw volume (%)” value (SD male albino rats [1]; 0.5 h after carrageenan) is on record?
Answer: The value was 12.0 ± 1.8 %.

Question: What about the “reduction ratio (%) of paw volume vs control” value (from here on “reduction ratio (%)”) (SD male albino rats [1]; 0.5 h after carrageenan) of the same compound?
Answer: Its value is 55.5%.

Question: What about the “Increased percent of paw volume (%)” value (SD male albino rats [1]; 1 h after carrageenan) of the same compound?
Answer: Its value is 13.7 ± 1.4 %.

Question: And the “reduction ratio (%)” value (SD male albino rats [1]; 1 h after carrageenan)?
Answer: Its value is 55.6%.

Question: And the “reduction ratio (%)” value (SD male albino rats [1]; 2 h after carrageenan)?
Answer: The value was 54.4%.

Question: What about the “Increased percent of paw volume (%)” value (SD male albino rats [1]; 4 h after carrageenan) of the same compound?
Answer: Its value is 49.2 ± 3.9 %.

Question: What about the “reduction ratio (%)” value (SD male albino rats [1]; 4 h after carrageenan) of the same compound?
Answer: Its value is 37.1%.

Question: And the “Increased percent of paw volume (%)” value (SD male albino rats [1]; 6 h after carrageenan)?
Answer: Its value is 51.8 ± 4.0 %.

Question: And the “reduction ratio (%)” value (SD male albino rats [1]; 6 h after carrageenan)?
Answer: The value was 31.50%.

Question: And the “Increased percent of paw volume (%)” value (SD male albino rats [2])?
Answer: The value was 22.0 ± 2.0 %.

Question: And the “Increased percent of paw volume (%)” value (SD male albino rats [3]; 0.5 h after carrageenan)?
Answer: Its value is 9.6 ± 1.6 %.

Question: And the “reduction ratio (%)” value (SD male albino rats [3]; 0.5 h after carrageenan)?
Answer: The value was 47.5%.

Question: And the “Increased percent of paw volume (%)” value (SD male albino rats [3]; 1 h after carrageenan)?
Answer: Its value is 13.6 ± 2.6 %.

Question: What about the “reduction ratio (%)” value (SD male albino rats [3]; 1 h after carrageenan) of the same compound?
Answer: The value was 48.0%.

Question: And the “Increased percent of paw volume (%)” value (SD male albino rats [3]; 2 h after carrageenan)?
Answer: Its value is 17.7 ± 3.1 %.

Question: What about the “reduction ratio (%)” value (SD male albino rats [3]; 2 h after carrageenan) of the same compound?
Answer: Its value is 56.3%.

Question: What about the “Increased percent of paw volume (%)” value (SD male albino rats [3]; 4 h after carrageenan) of the same compound?
Answer: Its value is 37.24 ± 5.9 %.

Question: And the “reduction ratio (%)” value (SD male albino rats [3]; 4 h after carrageenan)?
Answer: The value was 55.7%.

Question: And the “Increased percent of paw volume (%)” value (SD male albino rats [3]; 6 h after carrageenan)?
Answer: The value was 34.89 ± 2.8 %.

Question: What about the “reduction ratio (%)” value (SD male albino rats [3]; 6 h after carrageenan) of the same compound?
Answer: Its value is 52.8%.

Question: `CCCCC1C(=O)N(c2ccccc2)N(c2ccccc2)C1=O` [Phenylbutazone, phenylbutazone] was tested. Which “Increased percent of paw volume (%)” value (SD male albino rats [4]; 1 h after carrageenan) did it give?
Answer: The value was 13.2 ± 0.8 %.

Question: What about the “Increased percent of paw volume (%)” value (SD male albino rats [4]; 2 h after carrageenan) of the same compound?
Answer: The value was 19.3 ± 2.4 %.

Question: What about the “Increased percent of paw volume (%)” value (SD male albino rats [4]; 4 h after carrageenan) of the same compound?
Answer: Its value is 39.1 ± 5.0 %.

Question: And the “Increased percent of paw volume (%)” value (SD male albino rats [4]; 6 h after carrageenan)?
Answer: Its value is 35.0 ± 2.4 %.

Question: What about the “Increased percent of paw volume (%)” value (SD male albino rats [5]; 1 h after carrageenan) of the same compound?
Answer: The value was 14.0 ± 0.9 %.

Question: And the “Increased percent of paw volume (%)” value (SD male albino rats [5]; 2 h after carrageenan)?
Answer: Its value is 25.0 ± 3.7 %.

Question: What about the “Increased percent of paw volume (%)” value (SD male albino rats [5]; 4 h after carrageenan) of the same compound?
Answer: The value was 37.8 ± 4.3%.

Question: And the “Increased percent of paw volume (%)” value (SD male albino rats [5]; 6 h after carrageenan)?
Answer: The value was 35.0 ± 2.4 %.

Question: And the Number of writhing (ICR male mice; counted for 10 minutes)?
Answer: Its Number of writhing is 12.3 ± 0.9.

Question: And the “Inhibition rate (%)” value (ICR male mice; writhing)?
Answer: Its value is 50.1%.
